Laboratory results published in article PMC6591251, “Discovery of potent necroptosis inhibitors targeting RIPK1 kinase activity for the treatment of inflammatory disorder and cancer metastasis” (Cell Death & Disease, 2019).
In brackets after ≈: the same amount, converted by molar mass. Several values for one entry are separate records, joined by “and”; a condition that tells them apart may be missing. Identical values can stand only once.

Tests used:
mouse RIPK1 = target: T1, mouse RIPK1 (Mus musculus, UniProt Q60855); test: In vitro kinase activity assay (ADP-Glo); format: biochemical; conditions: recombinant mouse RIPK1
T1 construct: purchased SignalChem
Description: (§1) Having shown that PK6 and PK68 can inhibit activation of both RIPK1 and RIPK3 during TNF-mediated necroptosis, we sought to determine if PK6 and PK68 can directly target RIPK1 or and RIPK3 by performing in vitro kinase assays. Both PK6 and PK68 were able to block the kinase activities of both human RIPK1 and mouse RIPK1 in vitro (Fig. 4a and Supplementary Fig. 19).
(§2) The recombinant RIPK1 or RIPK3 protein was incubated with DMSO or the indicated compound for 15 min in the assay buffer (25 mM HEPES pH 7.2, 20 mM MgCl2, 12.5 mM MnCl2, 12.5 mM β-glycerol phosphate, 5 mM EGTA, 2 mM EDTA, and 2 mM DTT). Then, ATP (50 μM) and the substrate MBP (20 μM) were added to the reaction at room temperature for 120 min. The luminescence was measured to calculate the kinase activity after the addition of the ADP-Glo Kinase Assay kit following the manufacturer’s instructions (Promega).
Supplementary Figure 19. Both PK6 and PK68 were able to block the kinase activity of mouse RIPK1 in vitro.
In vitro kinase activity assays using recombinant mouse RIPK1 were performed. Recombinant proteins were incubated with PK6(A) and PK68(B) as indicated. Data represent mean value ±standard deviation.

human RIPK1 = target: T2, human RIPK1 (Homo sapiens, UniProt Q13546); test: In vitro kinase activity assay (ADP-Glo); format: biochemical; conditions: recombinant RIPK1; ATP 50 μM
T2 construct: purchased SignalChem
Description: as §1
Recombinant proteins were incubated with PK6 and PK68 as indicated. […] NIH3T3-RIPK3 cells were pretreated with indicated compounds for 1 h and subsequently treated with T (40 ng/ml)/S (100 nM)/Z (20 μM) or AP20187 (100 nM) for 24 h. Cell viability was determined by measuring ATP levels. e PK6 and PK68 have no effect on MLKL dimerization-induced cell death in HeLa-MLKL (1–190) cells that stably express MLKL (1–190aa) fused to DmrB. HeLa-MLKL (1–190) cells were pretreated with indicated compounds for 1 h and subsequently treated with AP20187 (100 nM) for 24 h. Cell viability was determined by measuring ATP levels.
as §2, with “Then, ATP (50 μM) and the substrate MBP (20 μM) were added to the reaction at room temperature for 120 min.” left out

[1] = Solubility in FaSSIF, LC/MS/MS; format: physicochemical; conditions: for solubility: pH= 6.5 FaSSIF, LC/MS/MS, duplicates
Description: ^a Calculated by ACDlabs. ^b Data are measured duplicates in pH= 6.5 FaSSIF using LC/MS/MS. ^c Data are determined three times by SMP10 melting point apparatus.

TRKA = TRKA (Homo sapiens, UniProt P04629); test: Kinase activity assay at a CRO; format: biochemical; conditions: CRO company
Description: (§3) Further, we evaluated the selectivity of PK68 against a panel of 369 kinases provided by Reaction Biology (at 1000 nM). […] In addition, we followed on some of the active “hits” from the kinome scan. PK68 was tested against TNIK and TRKA by a reputable CRO company. […] RIPK1 is known to mediate NF-κB activation independently of its kinase activity. […] It has been shown that homodimerization of RIPK3 or MLKL induced by the dimerizer leads to necroptosis bypassing the upstream signals[10],[37]. […] This dimerized RIPK3-induced necroptosis was blocked by RIPK3 inhibitor GSK873 but was not blocked by the RIPK1 inhibitor necrostatin-1. […] (Fig. 4e).
(§4) Supplementary Figure 20. The kinase activity assays of PK68 in TNIK and TRKA in vitro, Staurosporine as control.
(§5) (A) The IC50 values were obtained by increasing concentrations of PK68 and Staurosporine in TNIK. (B) The IC50 values were obtained by increasing concentrations of PK68 and Staurosporine in TRKA.

TNIK = TNIK (Homo sapiens, UniProt Q9UKE5); test: Kinase activity assay at a CRO; format: biochemical; conditions: CRO company
Description: as §3, §4, §5

B16-F10 cells = test: Lung metastasis model of melanoma cells; format: in vivo, C57BL/6 mice; conditions: 5 mg/kg ip pre-treatment; 14 days
Description: Studies have shown that RIPK1 kinase activity is involved in the promotion of tumor metastasis through death receptor 6-dependent necroptosis of endothelial cells[22] or VEGF-dependent activation of vascular permeability. We thus evaluated the therapeutic effect of PK68 on lung metastasis of mouse melanoma B16-F10 cells in vivo. […] After 2 weeks, the metastasis of B16-F10 cells was measured by histological analysis and assessed as the number of metastasis nodules in the lung. […] Two weeks after intravenous injection of RFP-LL/2 cells, RFP^+ LL/2 cells were isolated from the tumor tissues by flow cytometer sorting and no signal of phosphorylated RIPK1 was detected in these tumors cells (Supplementary Fig. 22). […] Further, we evaluated the effect of PK68 on the tumor cell transmigration across the cultured endothelium. […]
C57BL/6 mice bearing B16-F10 cells (a, b) or RFP-labeled LL/2 cells (c, d) were treated with vehicle, PK68 (5 mg/kg) or Nec-1s (5 mg/kg) as described in the Materials and methods. a, b Tumor metastasis of B16-F10 was measured by the numbers of metastasis nodules and histological analysis. […] The numbers of metastasis nodules on lung surfaces (b) in the metastasis model of B16-F10 were counted with the microscope. c, d Tumor metastasis of RFP-labeled LL/2 was calculated by RFP […] intensity. […]

T2 sequence (Q13546 whole entry): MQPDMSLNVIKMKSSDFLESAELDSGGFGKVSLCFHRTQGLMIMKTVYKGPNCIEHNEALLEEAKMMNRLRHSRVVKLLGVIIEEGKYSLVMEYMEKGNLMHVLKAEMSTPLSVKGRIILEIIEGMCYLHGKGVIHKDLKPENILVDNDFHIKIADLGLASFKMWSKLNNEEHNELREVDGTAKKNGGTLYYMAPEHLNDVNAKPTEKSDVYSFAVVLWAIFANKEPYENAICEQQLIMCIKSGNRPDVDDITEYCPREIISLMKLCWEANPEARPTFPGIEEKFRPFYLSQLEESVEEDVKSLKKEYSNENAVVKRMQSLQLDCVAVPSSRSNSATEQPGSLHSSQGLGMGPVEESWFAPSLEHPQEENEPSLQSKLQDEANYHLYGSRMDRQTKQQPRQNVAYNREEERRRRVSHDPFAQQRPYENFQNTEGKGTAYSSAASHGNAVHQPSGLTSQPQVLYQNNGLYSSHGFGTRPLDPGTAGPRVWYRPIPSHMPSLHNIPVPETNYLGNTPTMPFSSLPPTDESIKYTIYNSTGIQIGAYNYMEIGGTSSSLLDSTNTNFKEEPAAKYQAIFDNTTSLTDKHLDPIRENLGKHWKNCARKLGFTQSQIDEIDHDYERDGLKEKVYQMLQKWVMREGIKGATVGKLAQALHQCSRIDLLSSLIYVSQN
T1 sequence (Q60855 whole entry): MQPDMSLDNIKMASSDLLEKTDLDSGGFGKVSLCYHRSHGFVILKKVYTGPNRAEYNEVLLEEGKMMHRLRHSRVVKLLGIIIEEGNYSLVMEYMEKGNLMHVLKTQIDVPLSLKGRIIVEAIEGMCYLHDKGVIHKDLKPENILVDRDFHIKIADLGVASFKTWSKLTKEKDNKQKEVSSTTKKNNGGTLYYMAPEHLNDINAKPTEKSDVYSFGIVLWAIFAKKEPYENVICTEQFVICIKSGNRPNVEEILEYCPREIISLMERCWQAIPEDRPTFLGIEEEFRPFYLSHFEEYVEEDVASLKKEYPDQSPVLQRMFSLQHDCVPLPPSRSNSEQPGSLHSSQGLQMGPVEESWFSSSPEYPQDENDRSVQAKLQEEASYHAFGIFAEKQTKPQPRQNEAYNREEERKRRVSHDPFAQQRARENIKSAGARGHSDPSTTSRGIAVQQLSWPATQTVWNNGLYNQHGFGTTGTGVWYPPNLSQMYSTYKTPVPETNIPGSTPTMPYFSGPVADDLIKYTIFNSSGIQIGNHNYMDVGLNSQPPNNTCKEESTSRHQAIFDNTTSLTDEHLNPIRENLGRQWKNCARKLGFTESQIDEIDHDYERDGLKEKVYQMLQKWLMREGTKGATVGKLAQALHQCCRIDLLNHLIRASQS
Chain of TRKA (P04629 33-796): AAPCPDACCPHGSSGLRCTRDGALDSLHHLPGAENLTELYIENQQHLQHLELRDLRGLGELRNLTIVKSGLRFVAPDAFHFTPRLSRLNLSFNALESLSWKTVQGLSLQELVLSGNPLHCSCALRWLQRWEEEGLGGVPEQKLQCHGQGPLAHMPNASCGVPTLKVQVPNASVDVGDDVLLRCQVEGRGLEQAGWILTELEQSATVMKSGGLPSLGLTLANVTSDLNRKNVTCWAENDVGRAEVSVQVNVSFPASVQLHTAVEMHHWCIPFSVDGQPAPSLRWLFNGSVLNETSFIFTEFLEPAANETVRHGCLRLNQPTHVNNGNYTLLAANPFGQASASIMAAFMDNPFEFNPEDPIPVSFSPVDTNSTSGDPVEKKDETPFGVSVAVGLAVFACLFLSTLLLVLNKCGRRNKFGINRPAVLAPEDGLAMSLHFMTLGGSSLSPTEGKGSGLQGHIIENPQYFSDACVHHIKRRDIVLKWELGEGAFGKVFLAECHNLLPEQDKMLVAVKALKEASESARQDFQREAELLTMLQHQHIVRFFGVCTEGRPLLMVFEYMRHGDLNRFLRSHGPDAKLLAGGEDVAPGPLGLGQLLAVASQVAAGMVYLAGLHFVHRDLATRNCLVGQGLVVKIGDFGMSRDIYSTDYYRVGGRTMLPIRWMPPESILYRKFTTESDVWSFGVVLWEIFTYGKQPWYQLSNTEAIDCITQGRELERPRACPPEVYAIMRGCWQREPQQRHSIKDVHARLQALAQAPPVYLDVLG
Chain of TNIK (Q9UKE5 whole entry): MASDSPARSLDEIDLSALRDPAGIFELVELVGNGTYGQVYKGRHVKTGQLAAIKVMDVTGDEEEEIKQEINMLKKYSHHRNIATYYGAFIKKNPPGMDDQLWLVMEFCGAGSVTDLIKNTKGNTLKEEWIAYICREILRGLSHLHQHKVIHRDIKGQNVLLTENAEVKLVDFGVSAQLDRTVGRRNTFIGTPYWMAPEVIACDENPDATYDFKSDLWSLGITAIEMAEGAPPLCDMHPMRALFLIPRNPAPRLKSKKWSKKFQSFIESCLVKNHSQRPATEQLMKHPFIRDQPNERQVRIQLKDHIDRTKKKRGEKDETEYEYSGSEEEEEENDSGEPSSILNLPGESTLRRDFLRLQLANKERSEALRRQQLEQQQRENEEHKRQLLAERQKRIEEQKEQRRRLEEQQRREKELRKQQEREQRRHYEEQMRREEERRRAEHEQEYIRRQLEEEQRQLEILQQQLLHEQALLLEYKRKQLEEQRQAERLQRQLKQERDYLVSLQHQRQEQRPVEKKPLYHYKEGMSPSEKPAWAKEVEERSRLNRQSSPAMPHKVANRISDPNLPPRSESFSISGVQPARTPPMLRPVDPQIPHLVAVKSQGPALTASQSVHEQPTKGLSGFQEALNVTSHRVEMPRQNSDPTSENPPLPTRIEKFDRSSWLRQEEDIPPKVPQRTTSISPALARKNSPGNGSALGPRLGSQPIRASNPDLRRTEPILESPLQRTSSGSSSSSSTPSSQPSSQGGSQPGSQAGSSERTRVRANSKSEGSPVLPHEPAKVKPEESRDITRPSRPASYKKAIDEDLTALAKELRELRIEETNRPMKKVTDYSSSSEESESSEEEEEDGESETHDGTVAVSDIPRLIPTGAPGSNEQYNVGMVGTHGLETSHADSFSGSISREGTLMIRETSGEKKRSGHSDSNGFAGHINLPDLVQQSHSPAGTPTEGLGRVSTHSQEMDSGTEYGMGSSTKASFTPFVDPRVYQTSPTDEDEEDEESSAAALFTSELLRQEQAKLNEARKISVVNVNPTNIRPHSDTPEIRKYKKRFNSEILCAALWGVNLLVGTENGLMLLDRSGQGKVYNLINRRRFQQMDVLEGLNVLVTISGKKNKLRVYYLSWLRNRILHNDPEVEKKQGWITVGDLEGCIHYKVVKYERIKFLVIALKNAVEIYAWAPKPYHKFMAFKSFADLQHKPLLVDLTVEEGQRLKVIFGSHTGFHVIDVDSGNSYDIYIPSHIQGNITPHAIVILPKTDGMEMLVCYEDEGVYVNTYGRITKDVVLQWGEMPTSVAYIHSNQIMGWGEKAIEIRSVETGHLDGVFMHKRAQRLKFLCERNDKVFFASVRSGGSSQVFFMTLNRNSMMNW

SMILES | kinase activity of mouse RIPK1 in vitro (mouse RIPK1) | IC50 (human RIPK1) | solubility (in words) [1] | solubility [1] | IC50 (TRKA) | IC50 (TNIK) | number of pulmonary metastasis nodules (B16-F10 cells)
CC(=O)Nc1nc2ccc(-c3cnc(Cl)c(NC(=O)Cc4ccccc4)c3)cc2s1 [PK6, N-(5-(2-acetamidobenzo[d]thiazol-6-yl)-2-chloropyridin-3-yl)-2-phenylacetamide] | able to block | 200 ± 130 nM | poor | 0.09 µg/mL (≈ 0.206 µM) |  |  | 
CC(=O)Nc1nc2ccc(-c3cnc(C)c(NC(=O)OC4CCCCC4)c3)cc2s1 [PK68, cyclohexyl (5-(2-acetamidobenzo[d]thiazol-6-yl)-2-methylpyridin-3-yl)carbamate] | able to block | ~90 nM and 90 nM |  | 0.56 µg/mL (≈ 1.32 µM) | ~10000 nM | ~10000 nM | significantly reduced
